Results from ChEMBL document CHEMBL1143524, “Anti-tumor abietane diterpenes from the cones of Sequoia sempervirens” (2005).
In brackets after ≈: the same amount, converted by molar mass.

Columns and labels:
Format in all cases: functional
MDA-MB-231 = assay: Growth inhibitory activity against human MDA-MB-231 breast tumor cell line
HCT-116 = assay: Growth inhibitory activity against human HCT116 colon tumor cell line
A549 = assay: Inhibitory activity against human A549 lung tumor cell proliferation
NCI-H23 = assay: Growth inhibitory activity against human NCI-H23 lung tumor cell line
SW-620 = assay: Growth inhibitory activity against human SW620 colon tumor cell line
Rattus norvegicus = organism: Rattus norvegicus; assay: Growth inhibitory activity against H-ras transformed rat 2 tumor cell line; details: Rat2

Compound | GI50 (MDA-MB-231) | GI50 (HCT-116) | GI50 (A549) | GI50 (NCI-H23) | GI50 (SW-620) | GI50 (Rattus norvegicus)
CC(C)c1cc2c(cc1O)[C@@]1(C)CCC[C@@](C)(CO)[C@@H]1CC2 [18-HYDROXYFERRUGINOL] | < 50 µg/mL | < 50 µg/mL | < 50 µg/mL | < 50 µg/mL | < 50 µg/mL | 
CC(C)c1cc2c(cc1O)[C@@]1(CO)CCCC(C)(C)[C@@H]1CC2 [PISIFEROL] | 8.34 µg/mL (≈ 27.6 µM) | 4.34 µg/mL (≈ 14.3 µM) | 2.9 µg/mL (≈ 9.59 µM) | 2.8 µg/mL (≈ 9.26 µM) | 8.22 µg/mL (≈ 27.2 µM) | 2.3 µg/mL (≈ 7.6 µM)
CC(C)c1cc2c(cc1O)[C@@]1(C)CCCC(C)(C)[C@@H]1CC2=O [SUGIOL] | < 50 µg/mL | < 50 µg/mL | < 50 µg/mL | < 50 µg/mL | < 50 µg/mL | 
CC(C)c1cc2c(cc1O)[C@@]1(C)CCCC(C)(C)[C@@H]1C(O)C2=O (some centres not stated) | 3.64 µg/mL (≈ 11.5 µM) | 2.52 µg/mL (≈ 7.96 µM) | 1.42 µg/mL (≈ 4.49 µM) | 2.21 µg/mL (≈ 6.98 µM) | 3.98 µg/mL (≈ 12.6 µM) | 3.5 µg/mL (≈ 11.1 µM)
CC(C)c1cc2c(cc1O)[C@@]1(C)CCCC(C)(C)[C@@H]1CC2 [FERRUGINOL] | < 50 µg/mL | < 50 µg/mL | < 50 µg/mL | < 50 µg/mL | < 50 µg/mL | 
